Test results published in article PMC7101335, “Aryl-alkyl-lysines: Novel agents for treatment of C. difficile infection” (Scientific Reports, 2020).
In brackets after ≈: the same amount, converted by molar mass. Read-outs that look alike come from different tables or passages of the source.

How the values were obtained:
[1] = Caco-2 bidirectional permeability assay; format: in vitro ADME, human; settings: human, Caco-2
Procedure: The Caco-2 bidirectional permeability assay was conducted as described in previous reports[29],[30],[41],[42]. The Caco-2 cell line is similar to human enterocytes and expresses P-glycoprotein and other relevant metabolic enzymes that affect absorption of orally-administered xenobiotics across the intestinal mucosa[34],[43],[44]. Caco-2 cells were grown in tissue culture flasks, trypsinized (by rinsing cells with phosphate-buffered saline and then treating with trypsin-EDTA for 5–10 minutes at 37 °C with 5% CO2 until cells detached), suspended in Dulbecco’s Modified Eagle Medium with 10% fetal bovine serum, 1% nonessential amino acids and penicillin-streptomycin, and then seeded onto wells of a Millipore 96-well Caco-2 plate. Cells were cultured at 37 °C with 5% CO2 until confluent (approximately three weeks) and media was changed at relevant time points. For Apical to Basolateral (A → B) permeability, the test article was added to the apical (A) compartment and the amount of permeation (Papp, as calculated below) to the basolateral (B) compartment was determined; for Basolateral to Apical (B → A) permeability, the test article was added to the B compartment and the amount of permeation to the A compartment was determined. […] Caco-2 cells were incubated with these buffers for two hours, and the receiver side buffer was removed for analysis by LC/MS/MS. To verify the tight junctions and integrity of Caco-2 cell monolayers, aliquots of the cell buffers were analyzed by fluorescence (Lucifer yellow transport ≤ 2%). Any deviations from control values are reported. Data are expressed as permeability (Papp) = (dQ/dt)/(C0A) where dQ/dt is the rate of permeation, C0 is the initial concentration of test agent, and A is the area of the monolayer.

[2] = system: Clostridium difficile; assay: Broth microdilution MIC against Clostridium difficile strains; format: cell-based; settings: Clostridioides difficile
Procedure: The broth microdilution assay was utilized following the Clinical and Laboratory Standards Institute (CLSI) guidelines with slight modifications. Briefly, C. difficile strains were grown on anaerobic blood agar plates (Becton Dickinson, BD) and suspended in brain heart infusion supplemented broth (Brain heart infusion medium, BD, supplemented with yeast extract, L-cysteine, Vitamin K1 and Hemin, Sigma) to achieve a bacterial concentration of ~10^5 CFU/ml. The bacterial suspension was seeded in 96-well plates containing drugs/compounds, in duplicate, at the required concentration. Plates were then incubated at 37 °C anaerobically for 48 hours. MICs reported are the lowest concentration of each agent that inhibited the visual growth of bacteria.

[3] = system: E. faecalis; assay: Broth microdilution MIC against E. faecalis strains; format: cell-based; settings: Enterococcus faecalis, read-out: Minimum inhibitory concentration
[4] = system: E. faecium; assay: Broth microdilution MIC against E. faecium strains; format: cell-based; settings: Enterococcus faecium, read-out: Minimum inhibitory concentration
[5] = C. difficile strains P8, P13 and Isolate 10

CNC(=C[N+](=O)[O-])NCCSCc1ccc(CN(C)C)o1 [Ranitidine]
efflux ratio at 2 h ([1]; Re = (Papp B→A)/(Papp A→B)): 5.18 | Papp A→B at 2 h ([1]; apical (pH 6.5) to basolateral (pH 7.4), two hours): 0.186 ×10⁻⁶ cm/s | Papp B→A at 2 h ([1]; basolateral to apical, two hours): 0.942 ×10⁻⁶ cm/s

CN[C@H](CC(C)C)C(=O)N[C@H]1C(=O)N[C@@H](CC(N)=O)C(=O)N[C@H]2C(=O)N[C@H]3C(=O)N[C@H](C(=O)N[C@H](C(=O)O)c4cc(O)cc(O)c4-c4cc3ccc4O)[C@H](O)c3ccc(c(Cl)c3)Oc3cc2cc(c3O[C@@H]2O[C@H](CO)[C@@H](O)[C@H](O)[C@H]2O[C@H]2C[C@](C)(N)[C@H](O)[C@H](C)O2)Oc2ccc(cc2Cl)[C@H]1O [Vancomycin, reference compound]
MIC [2, 5]: 0.5 µg/mL (≈ 0.345 µM) | MIC ([2]; read-out: Minimum inhibitory concentration, C. difficile Isolate 1 (NR-13427)): 1 µg/mL (≈ 0.69 µM) | MIC ([2]; read-out: Minimum inhibitory concentration, C. difficile Isolate 2 (NR-13428)): 1 µg/mL (≈ 0.69 µM) | MIC ([2]; read-out: Minimum inhibitory concentration, C. difficile Isolate 4 (NR-13430)): 0.5 µg/mL (≈ 0.345 µM) | MIC ([2]; read-out: Minimum inhibitory concentration, C. difficile Isolate 5 (NR-13431)): 0.5 µg/mL (≈ 0.345 µM) | MIC ([2]; read-out: Minimum inhibitory concentration, C. difficile Isolate 6 (NR-13432)): 0.5 µg/mL (≈ 0.345 µM) | MIC ([2]; read-out: Minimum inhibitory concentration, C. difficile Isolate 9 (NR-13435)): 0.5 µg/mL (≈ 0.345 µM) | MIC ([2]; read-out: Minimum inhibitory concentration, C. difficile Isolate 10 (NR-13436)): 0.5 µg/mL (≈ 0.345 µM) | MIC ([2]; read-out: Minimum inhibitory concentration, C. difficile P2 (NR-32883)): 0.5 µg/mL (≈ 0.345 µM) | MIC ([2]; read-out: Minimum inhibitory concentration, C. difficile P4 (NR-32889)): 2 µg/mL (≈ 1.38 µM) | MIC ([2]; read-out: Minimum inhibitory concentration, C. difficile P8 (NR-32888)): 0.5 µg/mL (≈ 0.345 µM) | MIC ([2]; read-out: Minimum inhibitory concentration, C. difficile P13 (NR-32891)): 0.5 µg/mL (≈ 0.345 µM) | MIC ([2]; read-out: Minimum inhibitory concentration, C. difficile P15 (NR-32892)): 0.5 µg/mL (≈ 0.345 µM) | MIC ([2]; read-out: Minimum inhibitory concentration, C. difficile P20 (NR-32896)): 1 µg/mL (≈ 0.69 µM) | MIC ([2]; read-out: Minimum inhibitory concentration, C. difficile P21 (NR-32897)): 0.5 µg/mL (≈ 0.345 µM) | MIC ([2]; read-out: Minimum inhibitory concentration, C. difficile P29 (NR-32903)): 0.5 µg/mL (≈ 0.345 µM) | MIC ([2]; the rest of the C. difficile strains): 0.5 to 1 µg/mL (≈ 0.345 to 0.69 µM) | MIC [3]: 1 µg/mL (≈ 0.69 µM) | MIC [4]: > 128 µg/mL

Cc1ncc([N+](=O)[O-])n1CCO [Metronidazole, reference compound]
MIC ([2]; C. difficile Isolate 1 (NR-13427), read-out: Minimum inhibitory concentration): 0.25 µg/mL (≈ 1.46 µM) | MIC ([2]; C. difficile Isolate 2 (NR-13428), read-out: Minimum inhibitory concentration): 0.0625 µg/mL (≈ 0.365 µM) | MIC ([2]; C. difficile Isolate 4 (NR-13430), read-out: Minimum inhibitory concentration): 0.5 µg/mL (≈ 2.92 µM) | MIC ([2]; C. difficile Isolate 5 (NR-13431), read-out: Minimum inhibitory concentration): 0.25 µg/mL (≈ 1.46 µM) | MIC ([2]; C. difficile Isolate 6 (NR-13432), read-out: Minimum inhibitory concentration): 0.125 µg/mL (≈ 0.73 µM) | MIC ([2]; C. difficile Isolate 9 (NR-13435), read-out: Minimum inhibitory concentration): 0.0625 µg/mL (≈ 0.365 µM) | MIC ([2]; C. difficile Isolate 10 (NR-13436), read-out: Minimum inhibitory concentration): 0.125 µg/mL (≈ 0.73 µM) | MIC ([2]; C. difficile P2 (NR-32883), read-out: Minimum inhibitory concentration): 0.0625 µg/mL (≈ 0.365 µM) | MIC ([2]; C. difficile P4 (NR-32889), read-out: Minimum inhibitory concentration): 0.125 µg/mL (≈ 0.73 µM) | MIC ([2]; C. difficile P8 (NR-32888), read-out: Minimum inhibitory concentration): 0.125 µg/mL (≈ 0.73 µM) | MIC ([2]; C. difficile P13 (NR-32891), read-out: Minimum inhibitory concentration): 0.25 µg/mL (≈ 1.46 µM) | MIC ([2]; C. difficile P15 (NR-32892), read-out: Minimum inhibitory concentration): 0.0625 µg/mL (≈ 0.365 µM) | MIC ([2]; C. difficile P20 (NR-32896), read-out: Minimum inhibitory concentration): 0.25 µg/mL (≈ 1.46 µM) | MIC ([2]; C. difficile P21 (NR-32897), read-out: Minimum inhibitory concentration): 0.125 µg/mL (≈ 0.73 µM) | MIC ([2]; C. difficile P29 (NR-32903), read-out: Minimum inhibitory concentration): 0.0625 µg/mL (≈ 0.365 µM) | MIC [2, 5]: < 0.25 µg/mL
